The numbers were not newly measured in publication PMC7905424 (Biochemistry. Biokhimiia, 2021), which cites them from elsewhere.

Where two headings read alike, the source gives them in different places.

The subject of data set [1] is pro-inflammatory cytokine IL-6. As to conditions: COVID-19 patients.
Data set [2] deals with SARS-CoV-2 S protein.

Regarding low-molecular-weight heparin, the “content of the pro-inflammatory cytokine IL-6” value in data set [1] is on record as “pronounced decrease”.
Broadly, the Kd is the equilibrium constant for the complex coming apart. In the case of ACE2, the Kd in data set [2] (read-out: Kd for ACE2, lower end of literature range) is 1.2 nM; in data set [2] (read-out: Kd for ACE2, upper end of literature range), 95 nM.
